Source: ChEMBL document CHEMBL3430912, “GSK Tres Cantos Anti-Kinetoplastid Screening (TCAKS) Data”

Columns and labels:
[1] = molecular target: Sterol 14-alpha demethylase (Trypanosoma cruzi (strain CL Brener), UniProt Q7Z1V1); experiment: GSK_TCAKS: pIC50 CYP51 from Trypanosoma cruzi.; assay type: functional
[2] = GSK_TCAKS: pIC50 HepG2 human cell line viability assay using luminiscence. […] Seeding density was checked to ensure that new mono-layers were not more than 50% confluent at the time of harvesting. Cell suspension was added to 500 mL of the same medium at a final density of 1.2 * 10^5 cells/mL. This cell suspension was dispensed (25 uL, 3000 cells per well) into 384-well clear-bottom plates using a Multidrop Combi dispenser. Prior to addition of the cell suspension, the screening compounds (250 nL) were pre-dispensed into the plates with an Echo liquid handler. Plates were incubated for 48 h at 37C, 5% CO2. After incubation, plates equilibrated at room temperature for 30 min before proceeding to develop the luminescent signal. The signal developer, CellTiter-Glo Reagent, was allowed to equilibrate at room temperature for 30 min and added to the plates (25uL per well) using a Multidrop Combi dispenser. Plates were left for 10 min at room temperature for stabilization and then read using a ViewLux.; assay type: toxicity, cell-based
Trypanosoma cruzi [3] = experiment: (§1) GSK_TCAKS: pIC50 Trypanosoma cruzi Imaging: Infected Cells. […] Cells were then washed once with PBS before infection. T. cruzi trypomastigotes, collected at days 5 to 8 after infection from LLC-MK2 parasite infected cultures, were allowed to swim out for 4h at 37C from a centrifuged pellet (2,500 rpm/10 min/room temperature). Trypomastigotes were then collected and counted in a CASY Cell Counter. Trypomastigotes, in supplemented DMEM, were added to H9c2 cultures in a multiplicity of infection of 1 and incubated for 18 h. Cells were washed once with PBS before incubation of the infected H9c2 monolayer with trypsin (Life-Technologies) to detach cells from the flask. Cells were counted in a CASY Cell Counter using a 150 um capillary and their density set at 5 * 10^4 cells per mL in supplemented assay DMEM. Infected H9c2 were dispensed into 384-well poly-lysine coated assay plates at 50uL per well using a Multidrop Combi dispenser. After seeding them, the plates were incubated at 37C, 5% CO2 for 72h. Cultures were then fixed and stained by addition of 50 uL of a solution containing 8% formaldehyde and 4 uM DRAQ5 DNA dye (BioStatus, UK) per well. […] Five images were collected per well for reliable statistical analysis. Automated image analysis was performed with a script developed on Acapella High Content Imaging and Analysis Software (PerkinElmer). Output: percentage of infected cells per well as a second infection marker.; assay type: functional, organism-based, Rattus norvegicus; settings: H9c2, 4 h
Leishmania donovani [4] = experiment: GSK_TCAKS: pIC50 Leishmania donovani viability assay using fluorescence intensity. Assay plates (1536-well) were prepared by adding 30nL per well of compound. For single shot assay, the final compound concentration was 5uM. […] Briefly, eGFP LdBOB axenic amastigotes were harvested, fixed and counted in a CASY cell counter (Roche-Applied Science). A final concentration of 1.5 * 10^5 cells per well were prepared in amastigote media containing 500 U/mL penicillin/streptomycin (Invitrogen) and 6uL was dispensed to each experimental well using a Multidrop Combi dispenser (Thermo Scientific). 6uL of assay media was dispensed to control columns used as reference for 100% compound response. Following incubation for 72 h at 37C, 5% CO2, 2 uL of resazurin was added to each well at a final concentration of 0.5 mM in phosphate buffered saline (PBS) with IGEPAL (Sigma-Aldrich), 0.05% (v/v).; assay type: functional, organism-based
Leishmania donovani [5] = experiment: GSK_TCAKS: pIC50 Leishmania donovani Imaging: Infected Macrophages. Assay plates (384-well) were prepared by adding 250nL of compound to each well. For single shot assay, the final compound concentration was 5 uM. […] Automated image analysis was performed with a script developed on Acapella High Content Imaging and Analysis Software (PerkinElmer). Output: Percent of infected macrophage cells were reported for each well.; assay type: functional, organism-based, Homo sapiens; settings: THP-1
[6] = tested on: Trypanosoma brucei brucei; experiment: GSK_TCAKS: pIC50 Trypanosoma brucei viability assay using luminiscence. Assay plates (1536-well) were prepared. T. brucei cultures were harvested and counted in a CASY cell counter. A parasite suspension was prepared at a final concentration of 5 * 10^4 cells/mL in complete HMI9 medium and 6uL was dispensed to all wells containing compounds using a Multidrop Combi dispenser. 6uL of HMI9 media with 0.4% DMSO were dispensed to control columns. Plates were incubated for 24 h at 37C, 5% CO2 then tempered for 10 min at room temperature. ATP content was quantified by adding 4 uL of CellTiter-Glo Reagent (Promega) according to the manufacturer's instructions. Luminescence was measured using a ViewLux.; assay type: functional, organism-based; settings: Lister 427, CASY
[7] = tested on: Trypanosoma brucei brucei; experiment: GSK_TCAKS: pIC50 Trypanosoma brucei viability assay using fluorescence intensity. Assay plates (1536-well) were prepared by dispensing 25nL of compound solution per well using an Echo acoustic dispenser (Labcyte).; assay type: functional, organism-based; settings: Lister 427, 2 h
Trypanosoma cruzi [8] = experiment: as §1, with “H2C9” for “Trypanosoma cruzi”, “H9c2 Host Cardiomyocytes.” for “Infected Cells.”, “Number” for “percentage”, “H9c2 Host Cardiomyocytes nuclei to determine drug-related cytotoxicity.” for “infected cells per well as a second infection marker.”; assay type: functional, organism-based, Rattus norvegicus; settings: H9c2, 4 h
Leishmania donovani [9] = experiment: GSK_TCAKS: pIC50 Leishmania donovani Imaging: THP-1 Host Macrophages. Assay plates (384-well) were prepared by adding 250nL of compound to each well. For single shot assay, the final compound concentration was 5 uM. […] Automated image analysis was performed with a script developed on Acapella High Content Imaging and Analysis Software (PerkinElmer). Output: THP-1 cell count were reported for each well.; assay type: functional, organism-based, Homo sapiens
Trypanosoma cruzi [10] = experiment: GSK_TCAKS: pIC50 Trypanosoma cruzi viability assay using beta-GAL activity. This assay was run at single shot at 5uM compound concentration per well. The biological reagents consisted of NIH-3T3 host cells and trypomastigotes parasitic cells; both cell types were set to a 3.3 * 10^5 cells/mL dilution in assay DMEM by means of a CASY cell counter device using a 60um capillary. 6 uL of the mixture were dispensed per well (about 1 * 10^3 host-cells and 1 * 10^3 parasites) with a Multidrop Combi dispenser. […] In all wells, the percentage of DMSO never exceeded 0.5%. Plates incubated for four days at 37C, 5% CO2. The substrate used for the assay fluorescence intensity (FLINT) readout was resorufin-beta-D-galactopiranoside (Sigma-Aldrich) at 5uM per well. It was diluted in PBS supplemented with the soft detergent Igepal (Fluka).; assay type: functional, organism-based, Mus musculus; settings: Tulahuen, NIH3T3
Trypanosoma cruzi [11] = experiment: GSK_TCAKS: pIC50 Trypanosoma cruzi Imaging: Amastigotes/Cell. […] Cells were then washed once with PBS before infection. T. cruzi trypomastigotes, collected at days 5 to 8 after infection from LLC-MK2 parasite infected cultures, were allowed to swim out for 4h at 37C from a centrifuged pellet (2,500 rpm/10 min/room temperature). Trypomastigotes were then collected and counted in a CASY Cell Counter. Trypomastigotes, in supplemented DMEM, were added to H9c2 cultures in a multiplicity of infection of 1 and incubated for 18 h. Cells were washed once with PBS before incubation of the infected H9c2 monolayer with trypsin (Life-Technologies) to detach cells from the flask. Cells were counted in a CASY Cell Counter using a 150 um capillary and their density set at 5 * 10^4 cells per mL in supplemented assay DMEM. Infected H9c2 were dispensed into 384-well poly-lysine coated assay plates at 50uL per well using a Multidrop Combi dispenser. After seeding them, the plates were incubated at 37C, 5% CO2 for 72h. Cultures were then fixed and stained by addition of 50 uL of a solution containing 8% formaldehyde and 4 uM DRAQ5 DNA dye (BioStatus, UK) per well. […] Five images were collected per well for reliable statistical analysis. Automated image analysis was performed with a script developed on Acapella High Content Imaging and Analysis Software (PerkinElmer). Output: number of amastigotes per cell as infection level measurement.; assay type: functional, organism-based, Rattus norvegicus; settings: H9c2, 4 h
Leishmania donovani [12] = experiment: GSK_TCAKS: pIC50 Leishmania donovani Imaging: Amastigotes/Macrophages. Assay plates (384-well) were prepared by adding 250nL of compound to each well. For single shot assay, the final compound concentration was 5 uM. […] Automated image analysis was performed with a script developed on Acapella High Content Imaging and Analysis Software (PerkinElmer). Output: Average number of amastigotes per macrophage cell were reported for each well.; assay type: functional, organism-based, Homo sapiens; settings: THP-1

Sequence of Sterol 14-alpha demethylase (Q7Z1V1 whole entry): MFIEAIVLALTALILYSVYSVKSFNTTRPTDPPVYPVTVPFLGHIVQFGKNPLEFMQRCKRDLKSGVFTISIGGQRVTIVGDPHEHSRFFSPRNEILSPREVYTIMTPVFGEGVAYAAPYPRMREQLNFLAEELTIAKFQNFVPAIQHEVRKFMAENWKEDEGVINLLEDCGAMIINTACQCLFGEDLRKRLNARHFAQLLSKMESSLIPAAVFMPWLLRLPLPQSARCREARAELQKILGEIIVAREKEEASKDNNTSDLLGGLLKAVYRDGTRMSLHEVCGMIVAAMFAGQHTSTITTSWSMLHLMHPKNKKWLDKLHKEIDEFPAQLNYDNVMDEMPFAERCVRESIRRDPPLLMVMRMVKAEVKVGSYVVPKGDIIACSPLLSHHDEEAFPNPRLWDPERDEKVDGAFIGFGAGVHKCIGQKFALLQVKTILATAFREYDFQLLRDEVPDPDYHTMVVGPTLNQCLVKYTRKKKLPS

Row | SMILES | IC50 [1] [µM] | IC50 at 48 h [2] [µM] | IC50 (Trypanosoma cruzi [3]) [µM] | IC50 (Leishmania donovani [4]) [µM] | IC50 (Leishmania donovani [5]) [µM] | IC50 [6] [µM] | IC50 [7] [µM] | IC50 (Trypanosoma cruzi [8]) [µM] | IC50 (Leishmania donovani [9]) [µM] | IC50 (Trypanosoma cruzi [10]) [µM] | IC50 (Trypanosoma cruzi [11]) [µM] | IC50 (Leishmania donovani [12]) [µM]
1 | O=C(Cc1ccc2c(c1)CCC2)Nc1nnc(-c2ccccn2)[nH]1 | 2.51 | 50.1 | 10 | 7.94 | 6.31 | > 39.8 | 20 | > 50.1 | > 50.1 | 10 | 10 | 6.31
2 | COc1ccc2ncc(=O)n(CCN3CC[C@H](NCc4ncc(Cl)c5[nH]ncc45)[C@H](O)C3)c2n1 | > 100 | > 100 | 3.16 | > 50.1 | > 50.1 | 0.501 | 0.316 | > 50.1 | > 50.1 | 3.98 | 1.58 | > 50.1
3 | CS(=O)(=O)N1CCC(Nc2ncc(Br)c(Nc3cccc(F)c3C(N)=O)n2)CC1 | > 100 | > 100 | 1 | 0.1 | 1.58 | 0.0158 | 0.01 | 0.158 | 1 | 0.316 | 0.398 | 0.794
4 | NCc1csc(Nc2cc(Oc3ccccc3)ncn2)n1 | 0.316 | > 100 | 25.1 | > 50.1 | 25.1 | 0.794 | 0.631 | > 50.1 | > 50.1 | 31.6 | 31.6 | 25.1
5 | NC(=O)c1cc(F)ccc1Nc1nc(N[C@H]2CC[C@H](O)CC2)ncc1Br | 10 | 50.1 | 2 | 1.58 | 0.794 | 0.316 | 0.0794 | 0.501 | 0.398 | 2.51 | 0.794 | 0.631
6 | COc1ccc(Cl)cc1CC(=O)Nc1nnc(-c2ccccn2)[nH]1 | > 100 | 31.6 | > 50.1 | 3.98 | 6.31 | > 39.8 | 15.8 | > 50.1 | > 50.1 | 10 | 10 | 5.01
7 | Cc1ccccc1NS(=O)(=O)c1ccc2[nH]cc(C(=O)NC3CCCCC3)c(=O)c2c1 | 10 | 31.6 | 15.8 | > 50.1 | 39.8 | 0.316 | 0.251 | 25.1 | 31.6 | 10 | 10 | 39.8
8 | c1ccc(-c2nc(NC3CCCC3)c3ccccc3n2)nc1 | > 100 | 15.8 | 0.794 | 3.98 | 2 | 6.31 | 6.31 | 0.501 | 20 | 2 | 2 | 1.26
9 | Cc1cc2cc(CNc3ccc4c(c3)OCO4)c(=O)n(CCO)c2cc1C | 10 | > 100 | 0.251 | 6.31 | 0.501 | > 39.8 | 25.1 | > 50.1 | 39.8 | 0.631 | 0.2 | 0.251
10 | Cc1nc(-c2ccc3c(c2)OCO3)sc1C(=O)NCc1ccc2c(c1)OCO2 | 5.01 | > 100 | 0.794 | 2 | 0.251 | > 39.8 | 10 | > 50.1 | > 50.1 | 3.55 | 0.501 | 0.794
11 | CCNc1cc(-c2ccccn2)nc(Nc2ccc(OC)cc2)n1 | 39.8 | 39.8 | 3.16 | 1.58 | 0.501 | 10 | 12.6 | 0.316 | 25.1 | 0.708 | 2.51 | 0.398
